The values below come from paper doi:10.1101/2024.03.18.584035v1 (biorxiv, 2024).

In the assay the target is T1, olTRPM2 (Oryzias latipes, UniProt H2MNZ1).
T1 sequence (H2MNZ1 1-1431): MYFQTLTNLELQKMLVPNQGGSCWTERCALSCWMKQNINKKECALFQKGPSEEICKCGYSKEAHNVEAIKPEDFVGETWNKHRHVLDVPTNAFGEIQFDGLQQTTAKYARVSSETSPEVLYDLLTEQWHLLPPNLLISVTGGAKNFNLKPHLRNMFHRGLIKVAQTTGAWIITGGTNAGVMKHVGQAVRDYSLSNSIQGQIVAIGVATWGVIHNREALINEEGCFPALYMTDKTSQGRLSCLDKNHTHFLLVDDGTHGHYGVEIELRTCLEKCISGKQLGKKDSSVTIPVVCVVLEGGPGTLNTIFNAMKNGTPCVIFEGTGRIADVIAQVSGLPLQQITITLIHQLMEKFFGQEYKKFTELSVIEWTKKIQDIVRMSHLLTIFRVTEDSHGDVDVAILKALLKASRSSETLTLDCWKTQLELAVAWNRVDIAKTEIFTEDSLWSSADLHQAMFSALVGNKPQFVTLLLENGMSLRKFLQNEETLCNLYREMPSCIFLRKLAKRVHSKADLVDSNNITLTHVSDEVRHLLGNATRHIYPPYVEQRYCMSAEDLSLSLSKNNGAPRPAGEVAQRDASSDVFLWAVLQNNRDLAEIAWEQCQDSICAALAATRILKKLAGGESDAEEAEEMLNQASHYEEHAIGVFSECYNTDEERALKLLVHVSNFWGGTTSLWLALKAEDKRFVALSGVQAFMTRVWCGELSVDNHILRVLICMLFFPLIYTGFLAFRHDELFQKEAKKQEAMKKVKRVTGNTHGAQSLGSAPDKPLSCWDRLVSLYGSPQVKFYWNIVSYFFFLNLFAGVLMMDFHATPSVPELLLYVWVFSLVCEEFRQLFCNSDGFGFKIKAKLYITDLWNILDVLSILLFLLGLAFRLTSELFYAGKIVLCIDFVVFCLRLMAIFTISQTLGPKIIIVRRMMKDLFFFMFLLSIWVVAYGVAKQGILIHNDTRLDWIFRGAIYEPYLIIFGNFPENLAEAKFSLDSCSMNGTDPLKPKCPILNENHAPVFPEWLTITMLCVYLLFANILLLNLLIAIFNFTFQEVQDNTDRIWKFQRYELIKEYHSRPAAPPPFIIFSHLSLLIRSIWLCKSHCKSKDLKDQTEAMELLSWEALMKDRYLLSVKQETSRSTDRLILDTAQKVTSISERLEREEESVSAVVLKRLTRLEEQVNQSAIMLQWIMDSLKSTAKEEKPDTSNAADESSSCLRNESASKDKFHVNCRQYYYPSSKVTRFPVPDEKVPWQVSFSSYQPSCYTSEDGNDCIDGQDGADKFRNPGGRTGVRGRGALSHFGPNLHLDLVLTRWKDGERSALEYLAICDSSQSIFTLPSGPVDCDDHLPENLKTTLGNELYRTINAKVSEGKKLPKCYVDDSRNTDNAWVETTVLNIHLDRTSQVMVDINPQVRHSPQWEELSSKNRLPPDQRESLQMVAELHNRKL
The experiment in a line: whole-cell patch clamp, HEK293T. It counts as cell-based. Conditions: intracellular ADPR; room temperature; pH 7.4; -80 mV; agonist.

For `Nc1ncnc2c1ncn2[C@@H]1O[C@H](COP(=O)(O)OP(=O)(O)OC[C@H]2OC(O)[C@H](O)[C@@H]2O)[C@@H](O)[C@H]1O` (stereo partly shown) [ADPR, adenosine diphosphate ribose], a half-maximal response (EC50) required 1100 ± 800 nM.

A word on the EC50: it is the midpoint of the concentration-response curve. A low value points to a more potent agent.
